How the values were obtained:
[1] = target: T1, Disintegrin and metalloproteinase domain-containing protein 17 (Homo sapiens, UniProt P78536); test: Inhibition of TACE by cell based assay
[2] = target: T1, Disintegrin and metalloproteinase domain-containing protein 17; test: Inhibition of TACE
[3] = AUC in Sprague-Dawley rat at 10 mg/kg, po measured within 6 hrs after post-dosing by LC/MS/MS analysis; assay type: ADME, organism-based; parameters: time < 6 hr, dose 10 mg/kg, route oral; settings: plasma
[4] = Plasma concentration in Sprague-Dawley rat at 10 mg/kg, po measured after 6 hrs by LC/MS/MS analysis; assay type: ADME, organism-based; parameters: dose 10 mg/kg, route oral
Interstitial collagenase = target: T2, Interstitial collagenase (Homo sapiens, UniProt P03956); test: Inhibition of MMP1
T2 sequence (P03956 whole entry): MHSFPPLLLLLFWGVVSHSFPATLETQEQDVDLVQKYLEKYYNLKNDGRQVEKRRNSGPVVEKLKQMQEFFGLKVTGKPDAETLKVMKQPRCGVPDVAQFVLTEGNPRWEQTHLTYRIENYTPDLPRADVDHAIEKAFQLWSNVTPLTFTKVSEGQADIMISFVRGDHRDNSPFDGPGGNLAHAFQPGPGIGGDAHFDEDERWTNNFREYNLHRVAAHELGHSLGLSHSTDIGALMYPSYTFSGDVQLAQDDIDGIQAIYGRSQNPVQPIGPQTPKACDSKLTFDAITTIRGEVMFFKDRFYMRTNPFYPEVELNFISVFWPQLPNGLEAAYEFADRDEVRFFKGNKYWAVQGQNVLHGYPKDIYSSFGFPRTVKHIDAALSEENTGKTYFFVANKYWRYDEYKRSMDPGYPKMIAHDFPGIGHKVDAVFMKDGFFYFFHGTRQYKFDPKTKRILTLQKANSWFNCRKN

T1 sequence (P78536 whole entry, the tested form may be a part): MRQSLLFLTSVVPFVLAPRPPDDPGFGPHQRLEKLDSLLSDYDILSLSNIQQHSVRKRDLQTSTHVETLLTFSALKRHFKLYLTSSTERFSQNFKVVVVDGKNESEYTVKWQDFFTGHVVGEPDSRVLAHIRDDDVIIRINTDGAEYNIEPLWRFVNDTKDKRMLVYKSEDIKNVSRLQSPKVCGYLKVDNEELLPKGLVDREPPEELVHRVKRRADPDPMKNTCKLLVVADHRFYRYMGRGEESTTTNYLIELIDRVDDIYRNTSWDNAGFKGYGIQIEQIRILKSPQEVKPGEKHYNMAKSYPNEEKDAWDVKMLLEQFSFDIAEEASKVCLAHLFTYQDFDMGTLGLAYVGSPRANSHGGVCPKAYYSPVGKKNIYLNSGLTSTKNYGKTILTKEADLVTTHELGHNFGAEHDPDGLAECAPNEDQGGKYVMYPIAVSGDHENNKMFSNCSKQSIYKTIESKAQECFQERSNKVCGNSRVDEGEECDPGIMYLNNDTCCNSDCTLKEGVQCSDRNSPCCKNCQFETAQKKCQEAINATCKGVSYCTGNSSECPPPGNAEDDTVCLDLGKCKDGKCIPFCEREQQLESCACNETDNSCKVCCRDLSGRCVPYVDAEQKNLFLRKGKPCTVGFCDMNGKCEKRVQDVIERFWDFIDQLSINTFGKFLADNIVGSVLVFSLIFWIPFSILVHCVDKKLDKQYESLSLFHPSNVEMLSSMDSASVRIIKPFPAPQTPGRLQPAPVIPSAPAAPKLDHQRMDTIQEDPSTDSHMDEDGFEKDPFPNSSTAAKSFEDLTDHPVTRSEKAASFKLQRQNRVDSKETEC

IC50 [1]	Ki [2]	AUC at 6 h [3]	concentration at 6 h [4]	Ki (Interstitial collagenase)	Structure (SMILES)
720 nM					CNc1nc([C@H]2CCCN2C(=O)[C@H](O)[C@@H](O)C(=O)N[C@H](C)c2ccc(-n3cccn3)cc2)c(S(C)(=O)=O)s1
	2.6 nM				COc1cc2c(cc1OC)[C@H](c1ccc(Cl)cc1)N(C(=O)[C@H](O)[C@@H](O)C(=O)N[C@H](C)c1ccc(-n3cccn3)cc1)CC2
	5 nM	0.578 µM·h			C[C@@H](NC(=O)[C@H](O)[C@@H](O)C(=O)N1CCC[C@@H]1c1cc[nH]n1)c1ccc(-n2cccn2)cc1
4290 nM	6 nM	2.28 µM·h	0.247 µM		C[C@@H](NC(=O)[C@H](O)[C@@H](O)C(=O)N1CCC[C@@H]1c1csc(N)n1)c1ccc(-n2cccn2)cc1
4480 nM	4 nM	48.3 µM·h	5.4 µM		CCCNc1nc([C@H]2CCCN2C(=O)[C@H](O)[C@@H](O)C(=O)N[C@H](C)c2ccc(-n3cccn3)cc2)cs1
2150 nM	4 nM	31.4 µM·h	3.54 µM		C[C@@H](NC(=O)[C@H](O)[C@@H](O)C(=O)N1CCC[C@@H]1c1csc(NC2CCC2)n1)c1ccc(-n2cccn2)cc1
3240 nM	1 nM				CNc1nc([C@H]2CCCN2C(=O)[C@H](O)[C@@H](O)C(=O)N[C@H](C)c2ccc(-n3cccn3)cc2)c(-c2ccc(F)cc2)s1
2770 nM	4 nM	1.42 µM·h			CNc1nc([C@H]2CC(F)(F)CN2C(=O)[C@H](O)[C@@H](O)C(=O)N[C@H](C)c2ccc(-n3cccn3)cc2)cs1
	531 nM				CNc1nc([C@H]2C[C@@H]3C[C@@H]3N2C(=O)[C@H](O)[C@@H](O)C(=O)N[C@H](C)c2ccc(-n3cccn3)cc2)cs1
384 nM	16 nM	0.237 µM·h			CNc1nc([C@H]2c3cc(F)ccc3CN2C(=O)[C@H](O)[C@@H](O)C(=O)N[C@H](C)c2ccc(-n3cccn3)cc2)cs1
257 nM	0.5 nM				CCNc1nc([C@H]2c3cnc(N)nc3CN2C(=O)[C@H](O)[C@@H](O)C(=O)N[C@H](C)c2ccc(-n3cccn3)cc2)cs1
	6.7 nM	4.76 µM·h			C[C@@H](NC(=O)[C@H](O)[C@@H](O)C(=O)N1CC[C@H](O)C1c1cccc(Cl)c1)c1ccc(-n2cccn2)cc1 (mixture of isomers)

Further lines, the compound ahead of its results:

Structure (SMILES)	IC50 [1]	Ki [2]	AUC at 6 h [3]	concentration at 6 h [4]	Ki (Interstitial collagenase)
C[C@@H](NC(=O)[C@H](O)[C@@H](O)C(=O)N1CCC[C@@H]1c1cccc(Cl)c1)c1ccc(-n2cccn2)cc1		0.8 nM	2.95 µM·h	0.096 µM	> 100000 nM
C[C@@H](NC(=O)[C@H](O)[C@@H](O)C(=O)N1CCC[C@]1(C)c1cccc(Cl)c1)c1ccc(-n2cccn2)cc1		0.4 nM	1.47 µM·h		
C[C@@H](NC(=O)[C@H](O)[C@@H](O)C(=O)N1CC=C[C@@H]1c1cccc(Cl)c1)c1ccc(-n2cccn2)cc1		0.5 nM	0.461 µM·h		
COc1cc2c(cc1OC)[C@H](c1ccccc1)CN(C(=O)[C@H](O)[C@@H](O)C(=O)N[C@H](C)c1ccc(-n3cccn3)cc1)CC2		38 nM			
C[C@@H](NC(=O)[C@H](O)[C@@H](O)C(=O)N1CCC[C@@H]1c1ccn(C)n1)c1ccc(-n2cccn2)cc1		4 nM	2.92 µM·h	0.086 µM	
C[C@@H](NC(=O)[C@H](O)[C@@H](O)C(=O)N1CCC[C@@H]1c1nccs1)c1ccc(-n2cccn2)cc1		10 nM			
Cc1nc([C@H]2CCCN2C(=O)[C@H](O)[C@@H](O)C(=O)N[C@H](C)c2ccc(-n3cccn3)cc2)cs1		10 nM			
CNc1nc([C@H]2CCCN2C(=O)[C@H](O)[C@@H](O)C(=O)N[C@H](C)c2ccc(-n3cccn3)cc2)cs1	5800 nM	7 nM	30.7 µM·h	2.54 µM	
CCNc1nc([C@H]2CCCN2C(=O)[C@H](O)[C@@H](O)C(=O)N[C@H](C)c2ccc(-n3cccn3)cc2)cs1	5110 nM	7 nM	52 µM·h	5.97 µM	
CC(C)Nc1nc([C@H]2CCCN2C(=O)[C@H](O)[C@@H](O)C(=O)N[C@H](C)c2ccc(-n3cccn3)cc2)cs1	6680 nM	17 nM	115 µM·h	12.3 µM	
C[C@@H](NC(=O)[C@H](O)[C@@H](O)C(=O)N1CCC[C@@H]1c1csc(Nc2ccccc2F)n1)c1ccc(-n2cccn2)cc1	1140 nM	1 nM	0.13 µM·h		
C[C@@H](NC(=O)[C@H](O)[C@@H](O)C(=O)N1CCC[C@@H]1c1csc(Nc2cccnc2)n1)c1ccc(-n2cccn2)cc1	5550 nM	2 nM			
C[C@@H](NC(=O)[C@H](O)[C@@H](O)C(=O)N1CCC[C@@H]1c1csc(N(C)C)n1)c1ccc(-n2cccn2)cc1		65 nM			
C[C@@H](NC(=O)[C@H](O)[C@@H](O)C(=O)N1CCC[C@@H]1c1csc(N2CCCCC2)n1)c1ccc(-n2cccn2)cc1		39 nM	1.96 µM·h		
CNc1nc([C@H]2CCCN2C(=O)[C@H](O)[C@@H](O)C(=O)N[C@H](C)c2ccc(-n3cccn3)cc2)c(C)s1	2220 nM	2 nM	5.44 µM·h		
CNc1nc([C@H]2CCCN2C(=O)[C@H](O)[C@@H](O)C(=O)N[C@H](C)c2ccc(-n3cccn3)cc2)c(C2CC2)s1	2570 nM	2 nM	11.4 µM·h		
CNc1nc([C@H]2CCCN2C(=O)[C@H](O)[C@@H](O)C(=O)N[C@H](C)c2ccc(-n3cccn3)cc2)c(C#N)s1	3040 nM	2 nM	0.154 µM·h		
CCNc1nc([C@H]2C[C@@H](C)CN2C(=O)[C@H](O)[C@@H](O)C(=O)N[C@H](C)c2ccc(-n3cccn3)cc2)cs1	4040 nM	6 nM	5.62 µM·h		
CNc1nc([C@H]2C=CCN2C(=O)[C@H](O)[C@@H](O)C(=O)N[C@H](C)c2ccc(-n3cccn3)cc2)cs1	1340 nM	0.6 nM	1.81 µM·h		
CNc1nc([C@H]2C[C@H]3C[C@H]3N2C(=O)[C@H](O)[C@@H](O)C(=O)N[C@H](C)c2ccc(-n3cccn3)cc2)cs1	707 nM	1 nM	0.925 µM·h		
CNc1nc([C@H]2c3ccc(F)cc3CN2C(=O)[C@H](O)[C@@H](O)C(=O)N[C@H](C)c2ccc(-n3cccn3)cc2)cs1	288 nM	2 nM			
C[C@@H](NC(=O)[C@H](O)[C@@H](O)C(=O)N1C[C@H](O)CC1c1cccc(Cl)c1)c1ccc(-n2cccn2)cc1 (mixture of isomers)		7.6 nM	3.91 µM·h		
C[C@@H](NC(=O)[C@H](O)[C@@H](O)C(=O)N1CCCCC1c1cccc(Cl)c1)c1ccc(-n2cccn2)cc1 (mixture of isomers)		87 nM			
C[C@@H](NC(=O)[C@H](O)[C@@H](O)C(=O)N1CCCCC1c1ccc(Cl)cc1)c1ccc(-n2cccn2)cc1 (mixture of isomers)		22 nM			
C[C@@H](NC(=O)[C@H](O)[C@@H](O)C(=O)N1CCCCC1c1ccccc1)c1ccc(-n2cccn2)cc1 (mixture of isomers)		14 nM			
COc1cc2c(cc1OC)C(c1ccccc1)N(C(=O)[C@H](O)[C@@H](O)C(=O)N[C@H](C)c1ccc(-n3cccn3)cc1)CC2 (mixture of isomers)		0.9 nM	1.24 µM·h		
CNc1nc(C2(C)CCCN2C(=O)[C@H](O)[C@@H](O)C(=O)N[C@H](C)c2ccc(-n3cccn3)cc2)cs1 (mixture of isomers)	13800 nM	9 nM	2.44 µM·h		
